Measured values reported in patent publication US9133219B2, “Bicyclic antibiotics” (Basilea Pharmaceutica AG, priority 2009, dated 2015).
Values after ≈ are worked out from the molar mass of the structure shown. Like-named read-outs stand apart in the source and are kept apart here.

How the values were obtained:
Format in all cases: cell-based
[1] = tested on: Escherichia coli; test: Anti-microbial activity assay, MIC by broth microdilution; settings: for MIC: Escherichia coli
Method: (§1) Anti-Microbial Activity Assay.
(§2) The antibacterial activity of compounds is determined by the minimal inhibitory concentration (MIC) method. MICs for all bacteria except pneumococci and Haemophilus influenzae are obtained by broth microdilution with cation-adjusted Mueller-Hinton broth (CAMHB; BBL), according to CLSI guidelines (National Committee for Clinical Laboratory Standards. 2003. Methods for dilution antimicrobial susceptibility tests for bacteria that grow aerobically, 5th ed.; approved standard M7-A6. National Committee for Clinical Laboratory Standards, Wayne, Pa.), with the following modifications: (i) for pneumococci CAMHB is supplemented with 5% (^v/v) horse serum; (ii) for Haemophilus influenzae CAMHB is supplemented with 5% (^v/v) Fildes enrichment (BBL) (Pankuch, G. A., Hoellman, D. B., Lin, G., Bajaksouzian, S., Jacobs, M. R., and Appelbaum, P. C. 1998. Activity of HMR 3647 compared to those of five agents against Haemophilus influenzae and Moraxella catarrhalis by MIC determination and time-kill assay. Antimicrob. Agents Chemother. 42:3032-3034). Microtiter plates are incubated at 35° C. in ambient air for 20 to 24 h, then inspected using an illuminated microtiter plate reader fitted with a magnifying mirror (MIC 2000; Cooke Laboratory Products, Alexandria, Va.). Compounds of the present invention are tested against several bacteria strains comprising some Acinetobacter baumannii, Enterococcus faecalis, Enterococcus faecitan, Escherichia coli, Haemophilus influenzae, Klebsiella pneumoniae, Pseudomonas aeruginosa, Staphylococcus aureus, Staphylococcus epidermidis and Streptococcus pneumoniae.

[2] = tested on: Staphylococcus aureus; test: as above; settings: for MIC: Staphylococcus aureus
Method: as §1, §2

[3] = tested on: Staphylococcus epidermidis; test: as above; settings: strain ATCC14990; for MIC: Staphylococcus epidermidis
Method: as §1, §2

[4] = tested on: Streptococcus pneumoniae; test: Anti-microbial activity assay, MIC by broth microdilution (CAMHB with 5% horse serum); settings: for MIC: Streptococcus pneumoniae
Method: as §1, §2

[5] = tested on: Staphylococcus aureus and/or Staphylococcus epidermidis; test: MIC summary statement, staphylococci; settings: generally, for Staphylococcus aureus and/or Staphylococcus epidermidis
Method: as §1, §2

[6] = strain UB1005, read-out: MIC Escherichia coli UB1005
[7] = strain ATCC29213, read-out: MIC Staphylococcus aureus ATCC29213
[8] = strain ATCC49619, CAMHB with 5% horse serum, read-out: MIC Streptococcus pneumoniae ATCC49619
[9] = strain ATCC49619, CAMHB with 5% horse serum
[10] = E. coli UB1005, comparison of C4 and C3 position of the methoxyquinoline, same side chain, read-out: MIC
[11] = S. aureus ATCC29213, comparison of C4 and C3 position of the methoxyquinoline, same side chain, read-out: MIC
[12] = S. pneumoniae ATCC49619, comparison of C4 and C3 position of the methoxyquinoline, same side chain, read-out: MIC

Row | Compound | MIC [1, 6] [µg/mL] | MIC [2, 7] [µg/mL] | MIC [3] [µg/mL] | MIC [4, 8] [µg/mL] | other results
1 | COc1ccc2ncc(OCCN3CCC(NC(=O)c4ccc5c(c4)NC(=O)CS5)CC3)nc2c1 [Example 1, 3-oxo-3,4-dihydro-2H-benzo[1,4]thiazine-6-carboxylic acid {1-[2-(7-methoxy-quinoxalin-2-yloxy)-ethyl]-piperidin-4-yl}-amide] | 8 (≈ 16.2 µM) | ≤ 2 | ≤ 2 | 4 (≈ 8.1 µM) | MIC [5]: ≤ 2 µg/mL
2 | COc1ccc2ncc(OCC[C@H]3CC[C@H](NC(=O)c4ccc5c(n4)NC(=O)CO5)CC3)cc2n1 [Example 3, 3-oxo-3,4-dihydro-2H-pyrido[3,2-b][1,4]oxazine-6-carboxylic acid {trans-4-[2-(6-methoxy-[1,5]naphthyridin-3-yloxy)-ethyl]-cyclohexyl}-amide] | > 32 | ≤ 2 | ≤ 2 | 16 (≈ 33.5 µM) | MIC [5]: ≤ 2 µg/mL
3 | COc1ccc2ncc(OCCN3CCC(N(C)Cc4ccc5c(c4)OCCO5)CC3)nc2c1 [Example 10, (2,3-dihydro-benzo[1,4]dioxin-6-ylmethyl)-{1-[2-(7-methoxy-quinoxalin-2-yloxy)-ethyl]-piperidin-4-yl}-methyl-amine] | > 32 | 4 (≈ 8.61 µM) | 8 (≈ 17.2 µM) | 8 (≈ 17.2 µM) | 
4 | CCC(Oc1cnc2ccc(OC)cc2n1)N1CCCC(NCc2ccc3c(c2)NC(=O)CS3)C1 (stereo not shown) [Example 11, 6-({1-[1-(7-methoxy-quinoxalin-2-yloxy)-propyl]-piperidin-3-ylamino}-methyl)-4H-benzo[1,4]thiazin-3-one] | 16 (≈ 32.4 µM) | 4 (≈ 8.1 µM) | 4 (≈ 8.1 µM) | 4 (≈ 8.1 µM) | 
5 | COc1cccc2ncc(OCCN3CCC(NC(=O)c4ccc5c(c4)NC(=O)CS5)CC3)nc12 [Example 12, 3-oxo-3,4-dihydro-2H-benzo[1,4]thiazine-6-carboxylic acid {1-[2-(8-methoxy-quinoxalin-2-yloxy)-ethyl]-piperidin-4-yl}-amide] | ≥ 32 | 4 (≈ 8.1 µM) | 4 (≈ 8.1 µM) | 16 (≈ 32.4 µM) | 
6 | O=C1CSc2ccc(C(=O)NC3CCN(CCOc4cnc5ccc([N+](=O)[O-])cc5n4)CC3)cc2N1 [Example 13, 3-oxo-3,4-dihydro-2H-benzo[1,4]thiazine-6-carboxylic acid {1-[2-(7-nitro-quinoxalin-2-yloxy)-ethyl]-piperidin-4-yl}-amide] | > 32 | 4 (≈ 7.87 µM) | > 32 | > 32 | 
7 | COc1ccc2ncc(OCCN3CCC(NC(=O)c4ccc5c(c4)NC(=O)CS5)CC3)nc2c1 [Example 21, 3-oxo-3,4-dihydro-2H-benzo[1,4]thiazine-6-carboxylic acid {1-[2-(7-methoxy-quinoxalin-2-yloxy)-ethyl]-piperidin-4-yl}-amide] |  |  |  |  | MIC Escherichia coli UB1005 ([1]; strain UB1005): ≧32 mg/L; MIC Staphylococcus aureus ATCC29213 ([2]; strain ATCC29213): 8 µg/mL (≈ 16.2 µM); MIC Staphylococcus epidermidis ATCC14990 [3]: 16 µg/mL (≈ 32.4 µM); MIC Streptococcus pneumoniae ATCC49619 [4, 9]: >32 µg/mL
8 | COc1ccc2ncc(OCCN3CC(NC(=O)c4ccc5c(c4)NC(=O)CS5)C3)nc2c1 [Example 22, 3-oxo-3,4-dihydro-2H-benzo[1,4]thiazine-6-carboxylic acid {1-[2-(7-methoxy-quinoxalin-2-yloxy)-ethyl]-azetidin-3-yl}-amide] | 16 (≈ 34.4 µM) | 4 (≈ 8.59 µM) | 4 (≈ 8.59 µM) | 32 (≈ 68.7 µM) | 
9 | COc1ccc2ncc(OCCCN3CCC(NC(=O)c4ccc5c(c4)NC(=O)CS5)C3)nc2c1 (stereo not shown) [Example 23] |  |  |  |  | MIC Escherichia coli UB1005 ([1]; strain UB1005): 16 µg/mL (≈ 32.4 µM); MIC Staphylococcus aureus ATCC29213 ([2]; strain ATCC29213): 4 µg/mL (≈ 8.1 µM); MIC Staphylococcus epidermidis ATCC14990 [3]: 4 µg/mL (≈ 8.1 µM); MIC Streptococcus pneumoniae ATCC49619 [4, 9]: 16 µg/mL (≈ 32.4 µM)
10 | COc1ccc2ncc(OCCN3CCC(CNC(=O)c4cc5c(cc4Cl)SCC(=O)N5)CC3)nc2c1 [Example 24, 7-chloro-3-oxo-3,4-dihydro-2H-benzo[1,4]thiazine-6-carboxylic acid {1-[2-(7-methoxy-quinoxalin-2-yloxy)-ethyl]-piperidin-4-ylmethyl}-amide] | 4 (≈ 7.38 µM) | 8 (≈ 14.8 µM) | 8 (≈ 14.8 µM) | 16 (≈ 29.5 µM) | 
11 | COc1ccc2ncc(OCCN3CCC(N(C)Cc4ccc5c(c4)NC(=O)CS5)CC3)nc2c1 [Example 25, 6-[({1-[2-(7-methoxy-quinoxalin-2-yloxy)-ethyl]-piperidin-4-yl}-methyl-amino)-methyl]-4H-benzo[1,4]thiazin-3-one] | 8 (≈ 16.2 µM) | 8 (≈ 16.2 µM) | 16 (≈ 32.4 µM) | 16 (≈ 32.4 µM) | 
12 | COc1ccc2ncc(OCCN3CCC(CNC(=O)c4cc(-c5cccs5)on4)C3)nc2c1 (stereo not shown) [Example 26, 5-thiophen-2-yl-isoxazole-3-carboxylic acid {1-[2-(7-methoxy-quinoxalin-2-yloxy)-ethyl]-pyrrolidin-3-ylmethyl}-amide] | > 32 | 4 (≈ 8.34 µM) | 16 (≈ 33.4 µM) | 8 (≈ 16.7 µM) | 
13 | COc1ccc2ncc(OCCCN3CCC(CNC(=O)c4cc5c(cc4Cl)SCCN5)C3)nc2c1 (stereo not shown) [Example 27, 7-chloro-3,4-dihydro-2H-benzo[1,4]thiazine-6-carboxylic acid {1-[3-(7-methoxy-quinoxalin-2-yloxy)-propyl]-pyrrolidin-3-ylmethyl}-amide] | 16 (≈ 30.3 µM) | 8 (≈ 15.1 µM) | 32 (≈ 60.6 µM) | 32 (≈ 60.6 µM) | 
14 | COc1ccc2ncc(C(=O)OC[C@H]3CC[C@H](N(C)Cc4ccc5c(c4)OCCO5)CC3)cc2c1 [Example 32, 6-methoxy-quinoline-3-carboxylic acid trans-4-[(2,3-dihydro-benzo[1,4]dioxin-6-ylmethyl)-methyl-amino]-cyclohexylmethyl ester] | > 32 | 8 (≈ 16.8 µM) | 16 (≈ 33.6 µM) | 32 (≈ 67.1 µM) | 
15 | COc1ccc2ncc(C(=O)OC[C@H]3CC[C@H](NCc4ccc5c(c4)OCCO5)CC3)cc2c1 [Example 33, 6-methoxy-quinoline-3-carboxylic acid trans-4-[(2,3-dihydro-benzo[1,4]dioxin-6-ylmethyl)-amino]-cyclohexylmethyl ester] | > 32 | 4 (≈ 8.65 µM) | 8 (≈ 17.3 µM) | 8 (≈ 17.3 µM) | 
16 | CCN(Cc1ccc2c(c1)OCCO2)[C@H]1CC[C@H](COC(=O)c2cnc3ccc(OC)cc3c2)CC1 [Example 34, 6-methoxy-quinoline-3-carboxylic acid trans-4-[(2,3-dihydro-benzo[1,4]dioxin-6-ylmethyl)-ethyl-amino]-cyclohexylmethyl ester] | > 32 | 8 (≈ 16.3 µM) | > 32 | > 32 | 
17 | COc1ccc2ncc(SCCN3CCC(NCc4ccc5c(c4)NC(=O)CO5)CC3)nc2c1 [Example 40] |  |  |  |  | MIC Escherichia coli UB1005 ([1]; strain UB1005): ≦2 mg/L; MIC Staphylococcus aureus ATCC29213 ([2]; strain ATCC29213): ≦2 mg/L; MIC Staphylococcus epidermidis ATCC14990 [3]: ≦2 mg/L; MIC Streptococcus pneumoniae ATCC49619 [4, 9]: ≦2 mg/L
18 | COc1ccc2nccc(OC[C@H]3CC[C@H](NCc4ccc5c(c4)OCCO5)CC3)c2c1 [reference compound] |  |  |  |  | MIC [1, 10]: 16 µg/mL (≈ 36.8 µM); MIC [2, 11]: 0.5 µg/mL (≈ 1.15 µM); MIC [4, 12]: 0.5 µg/mL (≈ 1.15 µM)
19 | COc1ccc2nccc(OC[C@H]3CC[C@H](NCc4ccc5c(c4)NC(=O)CO5)CC3)c2c1 [reference compound] |  |  |  |  | MIC [1, 10]: 1 µg/mL (≈ 2.23 µM); MIC [2, 11]: 1 µg/mL (≈ 2.23 µM); MIC [4, 12]: 2 µg/mL (≈ 4.47 µM)
20 | COc1ccc2ncc(OC[C@H]3CC[C@H](NCc4ccc5c(c4)OCCO5)CC3)cc2c1 [reference compound] |  |  |  |  | MIC [1, 10]: > 32 µg/mL; MIC [2, 11]: > 32 µg/mL; MIC [4, 12]: 32 µg/mL (≈ 73.6 µM)
21 | COc1ccc2ncc(OC[C@H]3CC[C@H](NCc4ccc5c(c4)NC(=O)CO5)CC3)cc2c1 [reference compound] |  |  |  |  | MIC [1, 10]: > 32 µg/mL; MIC [2, 11]: > 32 µg/mL; MIC [4, 12]: 32 µg/mL (≈ 71.5 µM)
